Experimental data reported in ChEMBL document CHEMBL3885861, “Open TG-GATES”.

Species on record: Rattus norvegicus
Assay: Open TG-GATES - Regimen: Single
Format: toxicity, organism-based, Sprague-Dawley
Parameters: regimen Single, gender Male, age 6 weeks
Details: in vivo, po, 60 mg/kg, route gavage, dose level Low; for APTT / Bas / Eos / Fbg / Hb / Ht / MCH / MCHC / MCV / Mono / PT / Plat / RBC / Ret / WBC: tissue Blood; for ALP / ALT / CRE / DBIL / GLC / IP / K / LDH / Na / PL / RALB / TBIL / TC / TG / TP / gamma-GTP: tissue Plasma

In the case of `CCN(CC)C(=S)SSC(=S)N(CC)CC`, the TERMINAL_BW (3 h) was 215.7 g, the APTT (3 h) was 20.7 s and the Bas (3 h) was 0%. The Eos (3 h) was 0.6%, the Fbg (3 h) was 298.2 mg/dL and the Hb (3 h) was 12.9 g/dL. It also gave a Ht (3 h) of 39.9%, an MCH (3 h) of 20.2 pg and an MCHC (3 h) of 32.3%. For the same compound, the MCV (3 h) was 62.6 fL, the Mono (3 h) was 3.6% and the PT (3 h) was 16.3 s. It also gave a Plat (3 h) of 128.9 x10_4/uL, an RBC (3 h) of 638.2 x10_4/ul and a Ret (3 h) of 8.8%. The WBC (3 h) was 84.6 x10_2/uL, the ALP (3 h) was 1871.6 IU/L and the ALT (3 h) was 41.6 IU/L. It also gave a CRE (3 h) of 0.1 mg/dL, a DBIL (3 h) of 0.002 mg/dL and a GLC (3 h) of 178.2 mg/dL. It also gave an IP (3 h) of 8.8 mg/dL, a K (3 h) of 4.1 meq/L and an LDH (3 h) of 188.6 IU/L. The Na (3 h) was 141.4 meq/L, the PL (3 h) was 128.6 mg/dL and the RALB (3 h) was 3.2 g/dL. It also gave a TBIL (3 h) of 0.016 mg/dL, a TC (3 h) of 71 mg/dL and a TG (3 h) of 70 mg/dL. The TP (3 h) was 5.5 g/dL, the gamma-GTP (3 h) was 1.4 IU/L and the TERMINAL_BW (6 h) was 211.5 g. The APTT (6 h) was 23.2 s, the Bas (6 h) was 0% and the Eos (6 h) was 0.8%. The Fbg (6 h) was 293 mg/dL, the Hb (6 h) was 13.2 g/dL and the Ht (6 h) was 40.9%. It also gave an MCH (6 h) of 20.3 pg, an MCHC (6 h) of 32.4% and an MCV (6 h) of 62.6 fL. It also gave a Mono (6 h) of 3.4%, a PT (6 h) of 16.3 s and a Plat (6 h) of 125.2 x10_4/uL. It also gave an RBC (6 h) of 653.8 x10_4/ul, a Ret (6 h) of 7.3% and a WBC (6 h) of 99 x10_2/uL. For the same compound, the ALP (6 h) was 1256.6 IU/L, the ALT (6 h) was 36.4 IU/L and the CRE (6 h) was 0.1 mg/dL. It also gave a DBIL (6 h) of 0 mg/dL, a GLC (6 h) of 179 mg/dL and an IP (6 h) of 9.1 mg/dL. It also gave a K (6 h) of 4.3 meq/L, an LDH (6 h) of 181.8 IU/L and a Na (6 h) of 141.6 meq/L. For the same compound, the PL (6 h) was 125.2 mg/dL, the RALB (6 h) was 3 g/dL and the TBIL (6 h) was 0.008 mg/dL. The TC (6 h) was 68.6 mg/dL, the TG (6 h) was 59.2 mg/dL and the TP (6 h) was 5.3 g/dL. It also gave a gamma-GTP (6 h) of 1 IU/L, a TERMINAL_BW (9 h) of 210.6 g and an APTT (9 h) of 23 s. For the same compound, the Bas (9 h) was 0%, the Eos (9 h) was 0.2% and the Fbg (9 h) was 307.2 mg/dL. For the same compound, the Hb (9 h) was 13.1 g/dL, the Ht (9 h) was 40.1% and the MCH (9 h) was 20.2 pg. It also gave an MCHC (9 h) of 32.5%, an MCV (9 h) of 62.3 fL and a Mono (9 h) of 2.6%. It also gave a PT (9 h) of 15.8 s, a Plat (9 h) of 121 x10_4/uL and an RBC (9 h) of 645 x10_4/ul. The Ret (9 h) was 7.5%, the WBC (9 h) was 93.7 x10_2/uL and the ALP (9 h) was 1515 IU/L. It also gave an ALT (9 h) of 32.8 IU/L, a CRE (9 h) of 0.1 mg/dL and a DBIL (9 h) of 0.002 mg/dL. It also gave a GLC (9 h) of 188.8 mg/dL, an IP (9 h) of 9.6 mg/dL and a K (9 h) of 4.1 meq/L. The LDH (9 h) was 160.4 IU/L, the Na (9 h) was 141.2 meq/L and the PL (9 h) was 149.4 mg/dL. The RALB (9 h) was 3.1 g/dL, the TBIL (9 h) was 0.018 mg/dL and the TC (9 h) was 81.6 mg/dL. For the same compound, the TG (9 h) was 99 mg/dL, the TP (9 h) was 5.5 g/dL and the gamma-GTP (9 h) was 1 IU/L. It also gave a TERMINAL_BW (24 h) of 213.4 g, an APTT (24 h) of 21.8 s and a Bas (24 h) of 0%. The Eos (24 h) was 0.4%, the Fbg (24 h) was 274.6 mg/dL and the Hb (24 h) was 12.6 g/dL. It also gave a Ht (24 h) of 39%, an MCH (24 h) of 20.3 pg and an MCHC (24 h) of 32.3%. It also gave an MCV (24 h) of 62.9 fL, a Mono (24 h) of 2% and a PT (24 h) of 16.6 s. It also gave a Plat (24 h) of 117.1 x10_4/uL, an RBC (24 h) of 620.4 x10_4/ul and a Ret (24 h) of 7%. For the same compound, the WBC (24 h) was 124.3 x10_2/uL, the ALP (24 h) was 1307.4 IU/L and the ALT (24 h) was 33.8 IU/L. It also gave a CRE (24 h) of 0.2 mg/dL, a DBIL (24 h) of 0 mg/dL and a GLC (24 h) of 178 mg/dL. The IP (24 h) was 6.5 mg/dL, the K (24 h) was 4.3 meq/L and the LDH (24 h) was 187.8 IU/L. For the same compound, the Na (24 h) was 141.4 meq/L, the PL (24 h) was 128.2 mg/dL and the RALB (24 h) was 2.8 g/dL. The TBIL (24 h) was 0.006 mg/dL, the TC (24 h) was 74.6 mg/dL and the TG (24 h) was 98 mg/dL. It also gave a TP (24 h) of 5.1 g/dL and a gamma-GTP (24 h) of 1 IU/L.
